These results are taken from PMC12368815, “Targeting Cancer with New Morpholine-Benzimidazole-Oxadiazole Derivatives: Synthesis, Biological Evaluation, and Computational Insights” (ACS Omega, 2025).

In series [1] the target is T1, VEGFR-2 enzyme (Homo sapiens, UniProt P35968).
T1 construct: purchased
Description: In vitro VEGFR-2 enzyme inhibition assay kit. The series is classed as biochemical. How it is done: The inhibitory effects of the synthesized compounds on the VEGFR-2 enzyme were assessed using an in vitro assay kit (Table ).

Series [2] has as its system NIH3T3 (healthy normal fibroblast cells). Description: MTT cytotoxicity assay on NIH3T3 normal fibroblasts. The series is classed as cell-based. Conditions: Mus musculus, mean of four independent assays. As to the method:
(§1) Compounds 5a–5j were evaluated for their anticancer activity via the MTT assay against the HT-29 cell line. […] Both the synthesized compounds and standards were tested across concentrations from 1000 to 0.49 μg/mL.
(§2) The cytotoxic effects of the compounds on colon cancer (HT29, ATCC HTB-38) and normal healthy fibroblast (NIH3T3, ATCC CRL-1658) cell lines were evaluated using the MTT assay. Based on the cytotoxicity data 5c, 5h and 5j stand out in terms of activity.

In series [3] the test system is HT-29 cell line (human colon cancer cell line). The series can be described thus: MTT cytotoxicity assay on HT-29 colon cancer cells. The series is classed as cell-based. To be noted: for IC50: Homo sapiens, HT-29, MTT, mean of four independent assays, read-out: IC50 HT29; for Selectivity index (SI): NIH3T3 versus HT29. As to the method:
as §1, §2

The subject of series [4] is HT-29 cells. The series can be described thus: Annexin V-FITC/PI flow cytometry apoptosis analysis. The series is classed as cell-based, human. Conditions: HT29, compound at IC50 concentration, 24 h, mean of two repetitions. An excerpt: Programmed cell death-apoptosis is a normal physiological process in healthy organisms that eliminates cells no longer needed. During apoptosis, phosphatidylserine (PS) in the cell membrane is translocated to the outer layer. The Annexin V protein included in the kit binds to this externalized PS, enabling its detection with FITC, a fluorescent marker. Annexin V can also bind to necrotic cells. In such cases, the cells are identified using “Ethidium Homodimer III (EthD-III) (or propidium iodide, PI)”. Flow cytometric assay kits use double-staining protocols to assess apoptosis by detecting differences in cell morphology through the binding efficiency of the Annexin–V complex to PS on the cell surface. , Apoptotic, Necrotic, and Healthy Cells Detection Kit [Available from (Apoptic necrotic kit)] used during flow cytometer analysis.
Briefly, HT-29 cells were plated in six-well plates following the manufacturer’s guidelines and exposed to the compounds at their IC50 concentrations for 24 h. Following treatment, cell suspensions were centrifuged at 1200 rpm for 5 min, and the resulting pellets were rinsed twice with 1 mL of cold phosphate-buffered saline. The assay kits were used according to the manufacturer’s instructions by transferring cells to the appropriate buffer solutions. For each sample, at least 10 000 cells were evaluated. Cell population fractions in various quadrants and gates were determined using quadrant and gate statistical analysis, with settings optimized based on comparison to the untreated control group.
To further investigate the mechanism underlying its anticancer effect, the ability of compound 5h to induce apoptosis was assessed using the Annexin V-FITC/PI dual staining method. The results are presented in Figure , where the data are shown in four quadrants corresponding to different cell populations: live (living) cells correspond to Q1-LL, early apoptotic cells to Q1-LR, late apoptotic cells to Q1-UR, and necrotic cells to Q1-UL.

The structures appear in SMILES notation.

T1 sequence (P35968 20-1356): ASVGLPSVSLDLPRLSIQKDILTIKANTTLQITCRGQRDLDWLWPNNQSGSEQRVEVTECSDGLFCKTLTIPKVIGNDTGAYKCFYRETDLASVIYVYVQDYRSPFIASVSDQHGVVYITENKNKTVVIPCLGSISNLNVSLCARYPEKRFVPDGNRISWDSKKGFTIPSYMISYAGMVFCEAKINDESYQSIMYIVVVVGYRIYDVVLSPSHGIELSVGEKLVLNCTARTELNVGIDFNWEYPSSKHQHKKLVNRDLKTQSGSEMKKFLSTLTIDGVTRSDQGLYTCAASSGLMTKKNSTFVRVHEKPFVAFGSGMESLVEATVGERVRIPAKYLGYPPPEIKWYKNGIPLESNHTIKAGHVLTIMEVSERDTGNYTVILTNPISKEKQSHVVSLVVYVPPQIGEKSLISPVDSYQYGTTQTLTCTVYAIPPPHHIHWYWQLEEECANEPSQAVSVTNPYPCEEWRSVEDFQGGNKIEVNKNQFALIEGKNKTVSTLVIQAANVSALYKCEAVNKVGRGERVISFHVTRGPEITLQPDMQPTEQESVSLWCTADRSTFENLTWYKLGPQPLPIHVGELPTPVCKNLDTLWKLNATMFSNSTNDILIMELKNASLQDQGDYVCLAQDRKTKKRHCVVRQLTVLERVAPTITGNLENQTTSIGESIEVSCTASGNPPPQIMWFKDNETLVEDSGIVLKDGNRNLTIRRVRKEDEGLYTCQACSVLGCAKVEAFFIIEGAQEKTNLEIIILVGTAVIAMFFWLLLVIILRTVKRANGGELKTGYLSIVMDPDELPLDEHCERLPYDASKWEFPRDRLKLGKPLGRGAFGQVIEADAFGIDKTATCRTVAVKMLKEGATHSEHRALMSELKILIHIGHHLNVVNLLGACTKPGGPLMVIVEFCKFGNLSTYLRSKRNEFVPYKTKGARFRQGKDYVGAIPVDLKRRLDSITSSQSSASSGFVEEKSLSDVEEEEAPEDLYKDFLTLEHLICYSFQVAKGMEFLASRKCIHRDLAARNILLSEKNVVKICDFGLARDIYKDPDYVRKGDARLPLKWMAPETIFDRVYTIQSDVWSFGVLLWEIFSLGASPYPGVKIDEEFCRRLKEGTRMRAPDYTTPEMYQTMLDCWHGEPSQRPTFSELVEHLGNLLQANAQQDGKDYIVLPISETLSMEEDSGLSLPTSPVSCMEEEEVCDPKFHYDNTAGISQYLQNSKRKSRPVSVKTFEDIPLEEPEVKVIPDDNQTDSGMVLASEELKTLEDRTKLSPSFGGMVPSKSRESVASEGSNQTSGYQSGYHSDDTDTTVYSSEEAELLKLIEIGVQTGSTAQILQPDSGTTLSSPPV

For the molecule `COc1ccc(C(=O)CSc2nnc(-c3ccc4nc(-c5ccc(N6CCOCC6)cc5)[nH]c4c3)o2)cc1` [5c, 1-(4-Methoxyphenyl)-2-(5-(2-(4-morpholinophenyl)-1H-benzo[d]imidazol-6-yl-1,3,4-oxadiazol-2-yl) Thio) Ethan-1-One], the concentration for half-maximal inhibition (IC50) came out at 0.918 ± 0.027 µM in series [1], 10.4 ± 0.205 µM in series [2] and 17.8 ± 1.77 µM in series [3]. Moreover, in series [3], the “Selectivity index (SI)” value stood at 0.59.
`O=C(CSc1nnc(-c2ccc3nc(-c4ccc(N5CCOCC5)cc4)[nH]c3c2)o1)c1ccccc1` [5a, 2-(5-(2-(4-Morpholinophenyl)-1H-benzo[d]imidazol-6-yl)-1,3,4-oxadiazol-2-ylthio)-1-phenylethan-1-One] displayed an IC50 in series [2] of 193 ± 7.56 µM. In series [3], the IC50 came to 135 ± 3.37 µM and the “Selectivity index (SI)” value came to 1.42.
The corresponding values for `Cc1ccc(C(=O)CSc2nnc(-c3ccc4nc(-c5ccc(N6CCOCC6)cc5)[nH]c4c3)o2)c(C)c1` [5i, 1-(2,4-Dimethylphenyl)-2-((5-(2-(4-morpholinophenyl)-1H-benzo[d]imidazol-6-yl)-1,3,4-oxadiazol-2-yl) Thio) Ethan-1-One] are 148 ± 3.99 µM, 72.1 ± 4.61 µM and 2.05.
As for `O=C(CSc1nnc(-c2ccc3nc(-c4ccc(N5CCOCC5)cc4)[nH]c3c2)o1)c1ccc(Br)cc1` [5j, 1-(4-Bromophenyl)-2-((5-(2-(4-morpholinophenyl)-1H-benzo[d]imidazol-6-yl)-1,3,4-oxadiazol-2-yl) Thio) Ethan-1-One], the half-maximal inhibitory concentration (IC50) in series [1] was found to be 0.098 ± 0.011 µM; in series [2], 4.55 ± 0.763 µM; in series [3] it was 9.66 ± 0.149 µM. Moreover, in series [3], the “Selectivity index (SI)” value is 0.47.
As to `O=C(CSc1nnc(-c2ccc3nc(-c4ccc(N5CCOCC5)cc4)[nH]c3c2)o1)c1ccc([N+](=O)[O-])cc1` [5g, 2-(5-(2-(4-Morpholinophenyl)-1H-benzo[d]imidazol-6-yl-1,3,4-oxadiazol-2-yl)thio)-1-(4-nitrophenyl) Ethan-1-One], the results for the IC50 in series [2] and in series [3] were over 1000 µM and 260 ± 8.68 µM, respectively.
Molecule `O=C(CSc1nnc(-c2ccc3nc(-c4ccc(N5CCOCC5)cc4)[nH]c3c2)o1)c1ccc(F)cc1` [5d, 1-(4-Fluorophenyl)-2-((5-(2-(4-morpholinophenyl)-1H-benzo[d]imidazol-6-yl)-1,3,4-oxadiazol-2-yl) Thio) Ethan-1-One] yielded an IC50 in series [2] of 163 ± 3.75 µM. Further, in series [3], the half-inhibitory concentration (IC50) was 175 ± 5.92 µM and the “Selectivity index (SI)” value stood at 0.93.
The like results for `N#Cc1ccc(C(=O)CSc2nnc(-c3ccc4nc(-c5ccc(N6CCOCC6)cc5)[nH]c4c3)o2)cc1` [5f, 4-(2-(5-(2-(4-Morpholinophenyl)-1H-benzo[d]imidazol-6-yl-1,3,4-oxadiazol-2-yl) Thio) Acetyl) Benzonitrile] were, in that order, 14.7 ± 0.818 µM, 30.2 ± 1.16 µM and 0.49.
For `Cc1ccc(C(=O)CSc2nnc(-c3ccc4nc(-c5ccc(N6CCOCC6)cc5)[nH]c4c3)o2)cc1` [5b, 2-(5-(2-(4-Morpholinophenyl)-1H-benzo[d]imidazol-6-yl)-1,3,4-oxadiazol-2-ylthio)-1-(p-tolyl) Ethan-1-One], in series [2], inhibition was half-maximal at 10.5 ± 2.17 µM (IC50). Also, in series [3], the IC50 came out at 22.7 ± 2.39 µM and the “Selectivity index (SI)” value came out at 0.46.
For the molecule `CNC(=O)c1cc(Oc2ccc(NC(=O)Nc3ccc(Cl)c(C(F)(F)F)c3)cc2)ccn1` [Sorafenib, reference compound], the figures for the half-inhibitory concentration (IC50) in series [2] and in series [3] were 30.13 ± 0.147 µM and 2.92 ± 0.214 µM, respectively.
For the molecule `O=C(CSc1nnc(-c2ccc3nc(-c4ccc(N5CCOCC5)cc4)[nH]c3c2)o1)c1ccc(Cl)c(Cl)c1` [5h, 1-(3,4-Dichlorophenyl)-2-((5-(2-(4-morpholinophenyl)-1H-benzo[d]imidazol-6-yl)-1,3,4-oxadiazol-2-yl) Thio) Ethan-1-One], inhibition in series [1] was half-maximal at 0.049 ± 0.002 µM (IC50). In series [2], this molecule gave a half-inhibitory concentration (IC50) of 15.2 ± 0.987 µM. The “fold higher cytotoxic activity than compound 5e” value in series [3] (HT-29, compared to 5e) is given as “approximately 33 fold”. In series [3], the half-inhibitory concentration (IC50) was 3.1 ± 0.979 µM and the “Selectivity index (SI)” value is listed as 4.88. Also, in series [4], the early apoptosis amounted to 2.05 ± 0.25%, the late apoptosis is given as 16.95 ± 2.85% and the necrosis was found to be 12.2 ± 2.1%.
Take `O=C(CSc1nnc(-c2ccc3nc(-c4ccc(N5CCOCC5)cc4)[nH]c3c2)o1)c1ccc(Cl)cc1` [5e, 1-(4-Chlorophenyl)-2-((5-(2-(4-morpholinophenyl)-1H-benzo[d]imidazol-6-yl)-1,3,4-oxadiazol-2-yl) Thio) Ethan-1-One]: the IC50 in series [2] was 531 ± 8.1 µM; in series [3] it was 104 ± 4.53 µM. For the same molecule, in series [3], the “Selectivity index (SI)” value is on record as 5.12.
